# Experimental data as given in PMC11494886, “Discovery and design of molecular glue enhancers of CDK12–DDB1 interactions for targeted degradation of cyclin K” (RSC Chemical Biology, 2024).
# Key:
# Cdk12/CycK and DDB1ΔB [1] = biological target: T1, Cdk12/CycK and DDB1ΔB (Homo sapiens, UniProt Q16531+Q9NYV4, DEL396-705); test: GST pulldown assay, recruitment of DDB1ΔB to Cdk12/CycK; assay type: binding; details: GST-Cdk12/GST-CycK bait, 5 μM compound, vs DMSO
# T1 construct: the Cdk12 (714–1063)/CycK (1–267) complex and the DDB1ΔB protein; made in house; host or cells: Sf9 insect cells (MultiBacTurbo)
# Protocol: The pulldown assay was utilized to identify drug-triggered protein–protein interactions involving the Cdk12 (714–1063)/CycK (1–267) complex and the DDB1ΔB protein. In this assay, purified GST-tagged Cdk12 construct complexed with GST-CycK was combined with equimolar amounts of His6-tagged DDB1ΔB (5 μM) in the presence of 5 μM of the respective small molecular compound in pulldown assay buffer (50 mM Hepes pH 7.4, 200 mM NaCl, 0.25 mM TCEP, 0.05% (v/v) Tween20), ensuring a 2% total DMSO concentration. Experimental controls included samples supplemented with 2% DMSO instead of compound as well as samples devoid of the GST-tagged Cdk12/CycK complex. Each sample was individually added to approximately 50 μL of pre-equilibrated glutathione agarose beads (Thermo Fisher Scientific). The bead suspensions were then subjected to a 2 h incubation period at room temperature with gentle agitation. After incubation, the beads were pelleted by centrifugation at 700 × g for 4 min, the supernatant was discarded, and the beads were washed three-times with 100 μL of pulldown assay buffer. Following the washing step, bound proteins were eluted from the beads with 50 μL of pulldown assay buffer supplemented with 10 mM GSH for 1 h at room temperature under rotation. Subsequently, the beads were again pelleted by centrifugation at 700 × g for 4 min and the resulting supernatants containing eluted protein fractions were mixed with 6 × SDS sample buffer at a 1 : 1 (v/v) ratio. The eluted protein samples were separated by SDS-PAGE and subjected to Coomassie brilliant blue staining for visualization and analysis.
# Cdk12/CycK and DDB1ΔB [2] = biological target: T1, Cdk12/CycK and DDB1ΔB; test: Thermal stability (nanoDSF) of mixture of DDB1ΔB and Cdk12/CycK; assay type: binding; details: Cdk12/CycK and DDB1ΔB 5 μM each, 3-fold molar excess of compound
# Excerpt: Synthetic genes, codon optimized for expression in Sf9 insect cells, comprising the kinase domain of human Cdk12 (residues 714–1063, UniProt accession number Q9NYV4) and cyclin box domains of human cyclin K (residues 1–267, UniProt accession number O75909) were purchased from GeneArt. The coding sequence of Cdk12 was integrated into the pACEBac1 acceptor vector, while CycK was introduced into pIDK donor vector. Both target vectors underwent modification, wherein a GST-affinity tag followed by a tobacco etch virus (TEV) protease cleavage site was introduced upstream of the protein coding sequence. A pIDC donor vector was employed to insert full-length CDK-activating kinase CAK1 (UniProt accession number P43568) from S. cerevisiae devoid of any affinity tag. […]
# The human wild-type BPB domain deletion version (ΔBPB: amino acids 396–705 deleted) of DNA damage-binding protein 1 (DDB1) (residues 1–1140 Δ396–705, UniProt accession number Q16531) was PCR-amplified from AddGene plasmid #124213 and inserted into a pACEBac1 vector, which had been modified with a N-terminal His6 affinity tag. […] After loading the supernatant, the column was washed with 10 column volumes (CV) lysis buffer to achieve baseline levels of absorbance at 280 nm wavelength, followed by 3 CV of wash buffer (50 mM Tris pH 8, 200 mM NaCl, 1 mM TCEP, 50 mM Imidazole) and another round of lysis buffer (5 CV). […]
# T1 sequence (Q9NYV4 714-1063, stated change not applied): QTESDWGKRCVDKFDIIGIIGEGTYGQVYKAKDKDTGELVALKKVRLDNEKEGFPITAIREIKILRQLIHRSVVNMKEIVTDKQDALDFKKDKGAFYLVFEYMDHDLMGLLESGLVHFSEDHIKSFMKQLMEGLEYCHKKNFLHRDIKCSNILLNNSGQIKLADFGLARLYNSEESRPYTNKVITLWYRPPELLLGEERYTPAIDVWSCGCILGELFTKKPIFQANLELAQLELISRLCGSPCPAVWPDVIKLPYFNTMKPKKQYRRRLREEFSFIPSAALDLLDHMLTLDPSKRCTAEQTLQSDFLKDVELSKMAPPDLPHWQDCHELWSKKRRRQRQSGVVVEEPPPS
# T1 sequence (O75909 1-267 partner limits assumed): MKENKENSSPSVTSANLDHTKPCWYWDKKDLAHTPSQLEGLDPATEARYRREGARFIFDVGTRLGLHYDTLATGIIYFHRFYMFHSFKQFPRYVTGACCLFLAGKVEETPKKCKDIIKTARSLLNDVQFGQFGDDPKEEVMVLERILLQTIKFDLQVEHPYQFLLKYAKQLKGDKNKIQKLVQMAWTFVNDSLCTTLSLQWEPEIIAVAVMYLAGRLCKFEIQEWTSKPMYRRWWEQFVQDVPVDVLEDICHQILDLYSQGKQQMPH
# T1 sequence (Q16531 with tags, fused parts or gaps DEL396-705): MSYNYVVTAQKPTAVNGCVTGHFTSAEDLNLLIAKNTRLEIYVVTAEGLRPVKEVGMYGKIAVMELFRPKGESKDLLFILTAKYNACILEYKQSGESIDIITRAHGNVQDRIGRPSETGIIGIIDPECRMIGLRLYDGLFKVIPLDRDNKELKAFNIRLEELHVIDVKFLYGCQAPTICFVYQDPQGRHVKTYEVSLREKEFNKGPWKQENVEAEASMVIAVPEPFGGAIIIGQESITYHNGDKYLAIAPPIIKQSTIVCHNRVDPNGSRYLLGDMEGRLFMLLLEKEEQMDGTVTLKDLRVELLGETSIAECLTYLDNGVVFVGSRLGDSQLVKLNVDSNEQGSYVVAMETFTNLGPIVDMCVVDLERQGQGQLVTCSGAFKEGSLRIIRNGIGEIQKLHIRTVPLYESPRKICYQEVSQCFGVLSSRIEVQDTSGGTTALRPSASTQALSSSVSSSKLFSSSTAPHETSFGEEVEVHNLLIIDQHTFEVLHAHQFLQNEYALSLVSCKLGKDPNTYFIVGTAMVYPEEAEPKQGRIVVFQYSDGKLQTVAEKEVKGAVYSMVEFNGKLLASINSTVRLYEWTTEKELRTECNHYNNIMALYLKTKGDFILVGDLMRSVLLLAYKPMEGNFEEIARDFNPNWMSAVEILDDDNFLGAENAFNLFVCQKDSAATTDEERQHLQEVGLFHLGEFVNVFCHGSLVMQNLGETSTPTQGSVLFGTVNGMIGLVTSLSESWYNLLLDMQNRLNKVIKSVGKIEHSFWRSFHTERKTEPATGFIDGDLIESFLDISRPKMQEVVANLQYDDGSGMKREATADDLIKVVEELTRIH
ΔTm (Cdk12/CycK and DDB1ΔB [2]),SMILES,recruitment of DDB1ΔB in pulldown (Cdk12/CycK and DDB1ΔB [1])
+5.05 °C,Cn1cc(-n2cnc3c(NCc4nc5cc(Cl)c(Cl)cc5[nH]4)nc(N4CCOCC4)nc32)cn1 [SR-4835],enrichment of DDB1ΔB fractions
+2 °C,"CN(C)C/C=C/C(=O)Nc1ccc(C(=O)N2CCC[C@@H](Nc3ncc(Cl)c(-c4c[nH]c5ccccc45)n3)C2)cc1 [THZ531, reference compound]",incapable of recruiting the DDB1ΔB protein
